For nine molecules, AC50 results are on record in ChEMBL document CHEMBL5291721, “A preclinical secondary pharmacology resource illuminates target-adverse drug reaction associations of marketed drugs” (Nat Commun, 2023).

Molecules are shown by their SMILES.

Among the targets are Adenosine receptor A2a (Homo sapiens, UniProt P29274); Vasopressin V1a receptor (Homo sapiens, UniProt P37288); Melanocortin receptor 3 (Homo sapiens, UniProt P41968); D(3) dopamine receptor (Homo sapiens, UniProt P35462).
The next experiment has as its target Bile salt export pump (Homo sapiens, UniProt O95342). Format: functional.
Experiment [1] deals with T1, Alpha-2C adrenergic receptor (Homo sapiens, UniProt P18825).
T1 sequence (P18825 whole entry): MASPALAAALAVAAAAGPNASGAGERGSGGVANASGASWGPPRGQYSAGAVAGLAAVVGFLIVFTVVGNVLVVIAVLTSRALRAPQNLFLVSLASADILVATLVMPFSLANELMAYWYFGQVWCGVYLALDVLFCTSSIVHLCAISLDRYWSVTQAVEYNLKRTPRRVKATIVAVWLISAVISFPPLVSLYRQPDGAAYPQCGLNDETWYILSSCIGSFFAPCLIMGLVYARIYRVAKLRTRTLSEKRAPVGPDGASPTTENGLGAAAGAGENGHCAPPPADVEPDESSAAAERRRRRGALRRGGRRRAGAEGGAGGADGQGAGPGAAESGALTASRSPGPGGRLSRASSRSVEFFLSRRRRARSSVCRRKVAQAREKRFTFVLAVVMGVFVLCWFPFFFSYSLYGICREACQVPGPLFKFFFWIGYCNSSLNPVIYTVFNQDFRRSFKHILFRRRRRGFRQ
Type of experiment: functional.

In experiment [2] the target is Beta-1 adrenergic receptor (Homo sapiens, UniProt P08588). Format: functional.
Beta-1 adrenergic receptor, sequence (P08588 whole entry): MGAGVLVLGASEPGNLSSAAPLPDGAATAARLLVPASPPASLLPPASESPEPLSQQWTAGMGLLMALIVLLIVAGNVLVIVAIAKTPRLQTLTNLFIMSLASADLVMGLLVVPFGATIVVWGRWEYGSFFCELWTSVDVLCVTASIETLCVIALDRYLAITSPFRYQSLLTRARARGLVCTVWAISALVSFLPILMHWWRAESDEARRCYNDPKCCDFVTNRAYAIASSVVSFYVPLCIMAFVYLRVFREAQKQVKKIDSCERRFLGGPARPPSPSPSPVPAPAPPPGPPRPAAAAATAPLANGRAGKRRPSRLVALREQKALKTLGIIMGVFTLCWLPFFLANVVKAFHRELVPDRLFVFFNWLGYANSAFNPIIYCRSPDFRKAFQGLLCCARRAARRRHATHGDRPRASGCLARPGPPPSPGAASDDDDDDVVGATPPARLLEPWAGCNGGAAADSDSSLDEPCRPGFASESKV
Experiment [3] deals with T2, Type-1 angiotensin II receptor (Homo sapiens, UniProt P30556).
T2 sequence (P30556 whole entry): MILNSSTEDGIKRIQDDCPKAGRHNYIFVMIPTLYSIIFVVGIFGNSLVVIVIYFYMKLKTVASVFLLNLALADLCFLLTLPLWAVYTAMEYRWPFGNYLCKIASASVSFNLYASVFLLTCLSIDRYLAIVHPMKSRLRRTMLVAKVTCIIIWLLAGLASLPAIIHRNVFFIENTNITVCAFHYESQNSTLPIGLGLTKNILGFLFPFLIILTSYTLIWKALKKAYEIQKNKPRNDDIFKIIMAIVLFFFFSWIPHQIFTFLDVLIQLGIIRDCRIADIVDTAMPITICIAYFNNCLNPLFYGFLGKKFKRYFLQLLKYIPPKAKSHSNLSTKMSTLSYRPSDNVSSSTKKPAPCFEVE

Experiment [4] addresses Gamma-aminobutyric acid receptor subunit alpha-1 (Rattus norvegicus, UniProt P62813). Format: functional.
Experiment [5] concerns the target Growth hormone secretagogue receptor type 1 (Homo sapiens, UniProt Q92847).
The target of experiment [6] is T3, 5-hydroxytryptamine receptor 1A (Homo sapiens, UniProt P08908).
T3 sequence (P08908 whole entry): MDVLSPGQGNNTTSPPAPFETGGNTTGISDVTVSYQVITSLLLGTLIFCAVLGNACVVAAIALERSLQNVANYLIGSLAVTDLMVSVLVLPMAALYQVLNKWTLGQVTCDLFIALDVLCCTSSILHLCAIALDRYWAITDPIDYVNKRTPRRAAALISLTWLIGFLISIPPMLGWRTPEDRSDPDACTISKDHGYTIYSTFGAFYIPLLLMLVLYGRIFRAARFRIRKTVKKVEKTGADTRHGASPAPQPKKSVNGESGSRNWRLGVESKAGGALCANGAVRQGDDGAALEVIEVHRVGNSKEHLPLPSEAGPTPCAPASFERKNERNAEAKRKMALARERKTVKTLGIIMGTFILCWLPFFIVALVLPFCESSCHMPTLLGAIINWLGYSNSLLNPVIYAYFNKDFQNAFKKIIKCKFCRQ
Type of experiment: functional, cell-based.

Experiment [7] concerns the target 5-hydroxytryptamine receptor 2B (Homo sapiens, UniProt P41595). Format: functional, cell-based.
Experiment [8] has as its target T4, 5-hydroxytryptamine receptor 2C (Homo sapiens, UniProt P28335).
T4 sequence (P28335 whole entry): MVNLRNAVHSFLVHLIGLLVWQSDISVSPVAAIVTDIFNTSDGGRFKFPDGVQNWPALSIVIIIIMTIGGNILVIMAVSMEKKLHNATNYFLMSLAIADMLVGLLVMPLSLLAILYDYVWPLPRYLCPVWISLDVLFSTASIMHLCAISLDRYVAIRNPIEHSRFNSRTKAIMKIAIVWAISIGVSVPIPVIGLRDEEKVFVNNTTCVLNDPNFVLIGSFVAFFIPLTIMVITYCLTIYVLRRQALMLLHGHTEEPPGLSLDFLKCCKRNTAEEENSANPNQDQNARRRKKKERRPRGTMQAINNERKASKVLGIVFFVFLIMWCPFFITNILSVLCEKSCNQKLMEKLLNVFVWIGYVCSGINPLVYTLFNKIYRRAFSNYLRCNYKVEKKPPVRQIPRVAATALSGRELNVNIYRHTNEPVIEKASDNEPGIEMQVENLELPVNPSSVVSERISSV

The target of experiment [9] is T5, Equilibrative nucleoside transporter 1 (Homo sapiens, UniProt Q99808).
T5 sequence (Q99808 whole entry): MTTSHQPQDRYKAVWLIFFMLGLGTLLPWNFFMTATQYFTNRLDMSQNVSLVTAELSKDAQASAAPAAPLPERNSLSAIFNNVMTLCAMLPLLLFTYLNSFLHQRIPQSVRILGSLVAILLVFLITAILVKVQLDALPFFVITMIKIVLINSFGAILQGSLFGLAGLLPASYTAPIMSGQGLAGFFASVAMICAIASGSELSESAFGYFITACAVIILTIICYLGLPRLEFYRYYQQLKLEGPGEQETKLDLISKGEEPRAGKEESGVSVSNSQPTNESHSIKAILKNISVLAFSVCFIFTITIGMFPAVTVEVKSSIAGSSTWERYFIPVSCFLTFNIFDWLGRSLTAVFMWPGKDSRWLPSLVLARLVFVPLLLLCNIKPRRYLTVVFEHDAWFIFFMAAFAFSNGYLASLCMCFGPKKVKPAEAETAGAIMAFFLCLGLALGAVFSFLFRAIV

For experiment [10], the target named is Sodium-dependent dopamine transporter (Homo sapiens, UniProt Q01959).
Sodium-dependent dopamine transporter, sequence (Q01959 whole entry): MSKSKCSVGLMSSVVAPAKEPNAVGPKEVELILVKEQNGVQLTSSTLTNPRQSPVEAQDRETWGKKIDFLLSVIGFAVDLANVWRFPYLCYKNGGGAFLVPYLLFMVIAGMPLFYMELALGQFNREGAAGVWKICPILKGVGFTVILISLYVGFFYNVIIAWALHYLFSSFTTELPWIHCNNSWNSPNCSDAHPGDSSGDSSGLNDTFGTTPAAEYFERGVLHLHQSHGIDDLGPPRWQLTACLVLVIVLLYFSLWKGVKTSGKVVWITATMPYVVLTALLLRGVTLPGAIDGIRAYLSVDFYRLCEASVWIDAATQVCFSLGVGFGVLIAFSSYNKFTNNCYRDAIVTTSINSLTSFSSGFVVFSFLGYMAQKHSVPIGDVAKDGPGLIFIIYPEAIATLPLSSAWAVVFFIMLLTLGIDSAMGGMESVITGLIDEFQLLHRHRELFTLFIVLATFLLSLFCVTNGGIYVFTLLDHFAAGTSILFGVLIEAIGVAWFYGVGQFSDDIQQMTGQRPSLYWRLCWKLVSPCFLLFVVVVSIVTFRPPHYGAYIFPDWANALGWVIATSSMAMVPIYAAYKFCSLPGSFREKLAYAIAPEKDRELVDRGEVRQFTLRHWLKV
Further: assay procedure not described here.

Melanocortin receptor 3, sequence (P41968 whole entry): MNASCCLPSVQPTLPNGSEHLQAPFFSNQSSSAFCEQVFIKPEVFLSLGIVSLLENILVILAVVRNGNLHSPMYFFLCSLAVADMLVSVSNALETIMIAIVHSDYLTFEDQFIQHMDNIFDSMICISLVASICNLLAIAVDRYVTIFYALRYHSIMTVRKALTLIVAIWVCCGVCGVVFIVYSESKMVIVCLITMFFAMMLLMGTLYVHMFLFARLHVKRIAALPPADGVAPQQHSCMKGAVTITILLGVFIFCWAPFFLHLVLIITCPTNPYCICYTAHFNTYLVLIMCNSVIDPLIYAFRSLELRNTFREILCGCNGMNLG
5-hydroxytryptamine receptor 2B, sequence (P41595 whole entry): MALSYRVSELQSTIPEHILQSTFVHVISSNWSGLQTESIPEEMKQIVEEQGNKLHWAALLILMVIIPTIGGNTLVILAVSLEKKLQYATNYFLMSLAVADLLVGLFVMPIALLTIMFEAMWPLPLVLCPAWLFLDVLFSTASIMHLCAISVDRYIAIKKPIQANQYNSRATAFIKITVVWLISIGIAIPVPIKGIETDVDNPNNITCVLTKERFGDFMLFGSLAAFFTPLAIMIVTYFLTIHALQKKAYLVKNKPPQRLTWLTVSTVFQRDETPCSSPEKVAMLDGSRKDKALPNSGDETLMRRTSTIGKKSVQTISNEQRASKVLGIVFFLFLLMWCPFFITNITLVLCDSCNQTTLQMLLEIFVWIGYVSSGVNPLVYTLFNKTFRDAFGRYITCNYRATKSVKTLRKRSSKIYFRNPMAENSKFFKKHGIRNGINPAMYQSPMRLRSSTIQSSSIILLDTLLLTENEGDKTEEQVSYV
Bile salt export pump, sequence (O95342 whole entry): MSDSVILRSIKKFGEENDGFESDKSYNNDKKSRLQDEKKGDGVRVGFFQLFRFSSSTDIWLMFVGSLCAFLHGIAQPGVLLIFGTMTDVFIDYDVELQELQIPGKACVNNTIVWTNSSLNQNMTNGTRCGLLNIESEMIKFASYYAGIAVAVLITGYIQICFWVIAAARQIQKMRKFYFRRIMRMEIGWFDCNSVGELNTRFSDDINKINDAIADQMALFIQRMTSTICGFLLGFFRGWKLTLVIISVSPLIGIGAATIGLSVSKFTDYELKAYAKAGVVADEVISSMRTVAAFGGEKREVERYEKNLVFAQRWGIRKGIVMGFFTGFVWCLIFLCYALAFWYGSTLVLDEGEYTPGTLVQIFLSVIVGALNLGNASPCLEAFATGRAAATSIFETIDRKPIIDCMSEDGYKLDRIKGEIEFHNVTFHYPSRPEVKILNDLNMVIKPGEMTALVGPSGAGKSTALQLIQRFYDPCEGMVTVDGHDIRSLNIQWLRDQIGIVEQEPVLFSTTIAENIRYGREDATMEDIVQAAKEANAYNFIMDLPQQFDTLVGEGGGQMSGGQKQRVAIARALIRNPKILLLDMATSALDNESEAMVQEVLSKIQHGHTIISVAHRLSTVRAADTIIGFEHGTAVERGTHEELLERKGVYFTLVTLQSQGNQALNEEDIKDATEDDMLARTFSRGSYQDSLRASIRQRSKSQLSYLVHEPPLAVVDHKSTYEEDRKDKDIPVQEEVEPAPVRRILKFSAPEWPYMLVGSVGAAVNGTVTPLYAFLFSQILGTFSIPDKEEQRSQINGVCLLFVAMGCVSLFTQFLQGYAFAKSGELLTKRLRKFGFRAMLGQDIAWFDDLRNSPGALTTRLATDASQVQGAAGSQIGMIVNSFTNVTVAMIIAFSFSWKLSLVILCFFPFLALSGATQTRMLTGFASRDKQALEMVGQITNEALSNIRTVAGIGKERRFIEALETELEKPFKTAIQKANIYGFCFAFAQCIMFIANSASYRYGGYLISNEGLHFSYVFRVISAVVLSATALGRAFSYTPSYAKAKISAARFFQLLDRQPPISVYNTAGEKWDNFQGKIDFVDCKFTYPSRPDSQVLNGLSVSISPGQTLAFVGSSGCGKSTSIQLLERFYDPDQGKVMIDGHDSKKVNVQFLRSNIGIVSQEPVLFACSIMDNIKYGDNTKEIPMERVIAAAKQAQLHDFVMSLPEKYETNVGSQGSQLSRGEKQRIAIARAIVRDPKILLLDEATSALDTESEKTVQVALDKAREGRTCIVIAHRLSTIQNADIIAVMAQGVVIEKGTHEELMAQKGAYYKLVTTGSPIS
Growth hormone secretagogue receptor type 1, sequence (Q92847 whole entry): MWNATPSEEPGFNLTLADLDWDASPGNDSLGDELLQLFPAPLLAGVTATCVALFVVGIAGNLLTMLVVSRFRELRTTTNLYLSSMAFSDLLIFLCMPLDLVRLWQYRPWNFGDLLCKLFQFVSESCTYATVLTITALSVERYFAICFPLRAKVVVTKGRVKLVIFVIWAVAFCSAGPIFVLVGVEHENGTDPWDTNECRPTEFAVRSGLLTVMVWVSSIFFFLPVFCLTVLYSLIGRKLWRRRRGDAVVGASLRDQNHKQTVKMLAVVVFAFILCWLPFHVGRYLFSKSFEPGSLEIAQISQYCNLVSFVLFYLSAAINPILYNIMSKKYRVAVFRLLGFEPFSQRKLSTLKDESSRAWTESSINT
Gamma-aminobutyric acid receptor subunit alpha-1, sequence (P62813 whole entry): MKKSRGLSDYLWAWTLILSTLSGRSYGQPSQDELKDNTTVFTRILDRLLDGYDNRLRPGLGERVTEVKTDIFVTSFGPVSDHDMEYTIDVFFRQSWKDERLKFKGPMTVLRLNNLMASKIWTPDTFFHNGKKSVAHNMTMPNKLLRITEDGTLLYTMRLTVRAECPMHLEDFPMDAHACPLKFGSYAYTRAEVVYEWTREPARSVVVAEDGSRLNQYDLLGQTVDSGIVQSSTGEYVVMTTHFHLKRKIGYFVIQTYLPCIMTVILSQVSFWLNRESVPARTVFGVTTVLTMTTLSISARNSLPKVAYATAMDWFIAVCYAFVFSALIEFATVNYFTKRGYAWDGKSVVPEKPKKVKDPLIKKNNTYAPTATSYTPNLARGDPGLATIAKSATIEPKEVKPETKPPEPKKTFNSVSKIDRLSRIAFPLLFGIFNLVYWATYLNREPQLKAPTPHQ
D(3) dopamine receptor, sequence (P35462 whole entry): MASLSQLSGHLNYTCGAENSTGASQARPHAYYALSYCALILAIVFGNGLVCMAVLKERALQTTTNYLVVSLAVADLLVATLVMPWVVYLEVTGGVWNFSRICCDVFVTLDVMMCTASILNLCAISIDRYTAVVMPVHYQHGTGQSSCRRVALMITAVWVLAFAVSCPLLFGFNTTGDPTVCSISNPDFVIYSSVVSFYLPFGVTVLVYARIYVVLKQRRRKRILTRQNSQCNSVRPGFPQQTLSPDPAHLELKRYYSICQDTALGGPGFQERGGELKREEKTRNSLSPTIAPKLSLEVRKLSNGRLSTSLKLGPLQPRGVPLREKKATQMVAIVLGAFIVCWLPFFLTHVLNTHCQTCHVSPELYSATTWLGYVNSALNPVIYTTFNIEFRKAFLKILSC
Adenosine receptor A2a, sequence (P29274 whole entry): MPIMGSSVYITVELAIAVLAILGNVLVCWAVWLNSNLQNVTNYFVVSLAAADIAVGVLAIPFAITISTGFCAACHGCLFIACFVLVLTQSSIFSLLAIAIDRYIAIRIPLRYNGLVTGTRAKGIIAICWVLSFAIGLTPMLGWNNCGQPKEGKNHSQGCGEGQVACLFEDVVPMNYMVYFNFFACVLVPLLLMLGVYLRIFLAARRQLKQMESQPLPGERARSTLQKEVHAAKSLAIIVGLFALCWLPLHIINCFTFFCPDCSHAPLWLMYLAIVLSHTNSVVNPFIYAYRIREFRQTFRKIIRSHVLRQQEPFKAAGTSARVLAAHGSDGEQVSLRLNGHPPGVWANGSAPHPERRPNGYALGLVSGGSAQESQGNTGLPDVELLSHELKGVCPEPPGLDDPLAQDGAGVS

Broadly, the AC50 is the midpoint of the concentration-response curve, whichever way the signal moves. For the molecule `CN1C(=O)CCS(=O)(=O)C1c1ccc(Cl)cc1` (stereo not given) [CHLORMEZANONE], the AC50 on Bile salt export pump is above 300 µM; on Adenosine receptor A2a, above 10 µM; in experiment [1], above 30 µM; in experiment [2], above 10 µM; in [3], above 10 µM; on Vasopressin V1a receptor, above 10 µM. In addition, the AC50 in [4] is above 10 µM; in [5], above 10 µM; in [6], above 10 µM; in [7], above 10 µM; in [8], above 30 µM; on Melanocortin receptor 3 it was above 10 µM. For the same molecule, the AC50 in experiment [9] is above 10 µM; in experiment [10], above 10 µM; on D(3) dopamine receptor, above 30 µM.
On to `CN(C)CCC(c1ccc(Cl)cc1)c1ccccn1` (stereo not given) [CHLORPHENIRAMINE], for which the AC50 was above 300 µM on Bile salt export pump; above 30 µM on Adenosine receptor A2a; above 10 µM in [1]; above 10 µM in experiment [2]; above 30 µM in [3]; above 10 µM at Vasopressin V1a receptor. For the same molecule, the concentration at half-maximal activity (AC50) is above 10 µM in [4]; above 30 µM in experiment [5]; above 10 µM in [6]; above 10 µM in [7]; above 10 µM in experiment [8]; above 30 µM on Melanocortin receptor 3. For the same molecule, the AC50 is above 30 µM in [9], 1.46 µM in [10] and above 10 µM at D(3) dopamine receptor.
Consider `O=C1Nc2ccc(Cl)cc2[C@@](C#CC2CC2)(C(F)(F)F)O1` [EFAVIRENZ], for which the concentration at half-maximal activity (AC50) was 110 µM on Bile salt export pump; above 30 µM at Adenosine receptor A2a; above 30 µM in experiment [1]; 19 µM in experiment [2]; 13 µM in experiment [3]; above 30 µM at Vasopressin V1a receptor. Also, the AC50 in experiment [4] was above 10 µM; in experiment [5], above 30 µM; in [6] it was above 10 µM; in experiment [7], above 10 µM; in [8] it was 5.61 µM; at Melanocortin receptor 3, above 30 µM. Moreover, the concentration at half-maximal activity (AC50) is above 30 µM in [9], 18 µM in experiment [10] and above 30 µM at D(3) dopamine receptor.
With `O=C(OCC(O)CO)c1ccccc1Nc1ccnc2cc(Cl)ccc12` (stereo not given) [GLAFENINE], the half-maximal activity concentration (AC50) on Bile salt export pump was 15 µM; on Adenosine receptor A2a, 23 µM; in experiment [1], above 30 µM; in experiment [2] it was above 30 µM; in [3], above 30 µM; at Vasopressin V1a receptor, above 30 µM. The concentration at half-maximal activity (AC50) in experiment [4] was 0.046 µM; in experiment [5], above 30 µM; in [6], above 30 µM; in [7] it was above 30 µM; in experiment [8], above 30 µM; at Melanocortin receptor 3 it was above 30 µM. Also, the half-maximal activity concentration (AC50) in experiment [9] is 8.1 µM; in experiment [10], above 30 µM; at D(3) dopamine receptor, above 30 µM.
In the case of `C[C@]12CCC(=O)C=C1CC[C@@H]1[C@@H]2[C@@H](O)C[C@@]2(C)[C@H]1CC[C@]2(O)C(=O)CO` [HYDROCORTISONE], the concentration at half-maximal activity (AC50) at Bile salt export pump was above 300 µM; at Adenosine receptor A2a, above 30 µM; in [1], above 10 µM; in experiment [2], above 10 µM; in [3], above 30 µM; at Vasopressin V1a receptor it was above 10 µM. Also, the AC50 was above 10 µM in experiment [4]; above 30 µM in experiment [5]; above 10 µM in experiment [6]; above 10 µM in experiment [7]; above 30 µM in [8]; above 30 µM at Melanocortin receptor 3. Moreover, the AC50 in experiment [9] was above 30 µM; in experiment [10], above 10 µM; on D(3) dopamine receptor it was above 10 µM.
Take `CCC(C)n1ncn(-c2ccc(N3CCN(c4ccc(OCC5COC(Cn6cncn6)(c6ccc(Cl)cc6Cl)O5)cc4)CC3)cc2)c1=O` (stereo not given) [ITRACONAZOLE]: the AC50 at Bile salt export pump was 0.66 µM; on Adenosine receptor A2a, above 30 µM; in [1], above 30 µM; in [2], above 30 µM; in experiment [3], above 30 µM; on Vasopressin V1a receptor, above 30 µM. In addition, the concentration at half-maximal activity (AC50) (in experiment [4]; in experiment [5]; in [6]; in experiment [7]; in experiment [8]; on Melanocortin receptor 3) was above 30 µM each time. Besides, the AC50 (in [9]; in experiment [10]; on D(3) dopamine receptor) was above 30 µM throughout.
For `c1ccc([C@H]2CN3CCSC3=N2)cc1` [LEVAMISOLE], the AC50 was above 300 µM on Bile salt export pump; above 30 µM at Adenosine receptor A2a; above 30 µM in experiment [1]; above 30 µM in experiment [2]; above 30 µM in [3]; above 30 µM at Vasopressin V1a receptor. In addition, the half-maximal activity concentration (AC50) (in experiment [4]; in experiment [5]; in [6]; in experiment [7]; in [8]; at Melanocortin receptor 3) was above 30 µM throughout. The half-maximal activity concentration (AC50) (in experiment [9]; in experiment [10]; on D(3) dopamine receptor) was above 30 µM in each case.
For the molecule `CN1C(C(=O)Nc2ccccn2)=C(O)c2sc(Cl)cc2S1(=O)=O` [LORNOXICAM], the AC50 on Bile salt export pump was 32 µM; on Adenosine receptor A2a, above 30 µM; in [1], above 10 µM; in [2], above 30 µM; in experiment [3] it was above 30 µM; at Vasopressin V1a receptor it was above 30 µM. Besides, the AC50 in experiment [4] is above 10 µM; in experiment [5], above 30 µM; in experiment [6] it was above 10 µM; in [7], above 10 µM; in [8], above 30 µM; at Melanocortin receptor 3, above 30 µM. The AC50 (in [9]; in experiment [10]; at D(3) dopamine receptor) was above 30 µM throughout.
In the case of `Cc1cccc(Nc2ccccc2C(=O)O)c1C` [MEFENAMIC ACID], the AC50 was 150 µM at Bile salt export pump; above 10 µM on Adenosine receptor A2a; above 10 µM in experiment [1]; above 10 µM in experiment [2]; above 10 µM in experiment [3]; above 10 µM at Vasopressin V1a receptor. In addition, the AC50 in experiment [4] was above 10 µM; in [5], above 10 µM; in [6], above 10 µM; in experiment [7] it was above 10 µM; in [8] it was above 30 µM; at Melanocortin receptor 3, above 10 µM. In addition, the half-maximal activity concentration (AC50) is above 10 µM in experiment [9], above 10 µM in [10] and above 30 µM on D(3) dopamine receptor.
